According to patent US9957257B2, “Amide compounds as 5-HT4 receptor agonists” (SUVEN LIFE SCIENCES LIMITED, priority 2015, dated 2018):

Columns and labels:
[1] = Object recognition task model; type: in vivo, Male Wistar rats; details: 0.1 mg/kg, p.o.
Experimental: The cognition enhancing properties of compounds of this invention were estimated by using this model.
Male Wistar rats (230-280 grams) were used as experimental animals. Four animals were housed in each cage. Animals were kept on 20% food deprivation before one day and given water ad libitum throughout the experiment and maintained on a 12 hours light/dark cycle. Also the rats were habituated to individual arenas for 1 hour in the absence of any objects.
One group of 12 rats received vehicle (1 mL/Kg) orally and another set of animals received compound of the formula (I) either orally or i.p., before one hour of the familiar (T1) and choice trial (T2).
The experiment was carried out in a 50×50×50 cm open field made up of acrylic. In the familiarization phase, (T1), the rats were placed individually in the open field for 3 minutes, in which two identical objects (plastic bottles, 12.5 cm height×5.5 cm diameter) covered in yellow masking tape alone (a1 and a2) were positioned in two adjacent corners, 10 cms from the walls. After 24 hours of the (T1) trial for long-term memory test, the same rats were placed in the same arena as they were placed in T1 trial. Choice phase (T2) rats were allowed to explore the open field for 3 minutes in presence of one familiar object (a3) and one novel object (b) (Amber color glass bottle, 12 cm high and 5 cm in diameter). Familiar objects presented similar textures, colors and sizes. During the T1 and T2 trial, explorations of each object (defined as sniffing, licking, chewing or having moving vibrissae whilst directing the nose towards the object at a distance of less than 1 cm) were recorded separately by stopwatch. Sitting on an object was not regarded as exploratory activity, however, it was rarely observed.
T1 is the total time spent exploring the familiar objects (a1+a2).
T2 is the total time spent exploring the familiar object and novel object (a3+b).
The object recognition test was performed as described by Behaviour Brain Research, 31 (1988), 47-59.

acetylcholine = experiment: Modulation of acetylcholine from the frontal cortex (microdialysis); type: in vivo, male Wistar rats; details: p.o.
From the text: Male Wistar rats (240-300 grams) were stereotaxically implanted with a microdialysis guide cannula in frontal cortex (AP: +3.2 mm, ML: −3.2 mm, DV: −1.5 mm). Co-ordinates were taken according to Paxinos and Watson (2004) with reference points taken from bregma and vertical from the skull. The rats were allowed to recover individually for four to five days in a round bottom Plexiglas bowl with free access to feed and water.
One day prior to the microdialysis experiment, rats were connected to a dual quartz lined two-channel liquid swivel (Instech, UK) on a counter balance lever arm, which allowed unrestricted movements of the animal. Sixteen hour before start of study, a pre-equilibrated microdialysis probe (3 mm dialysis membrane) was inserted into the frontal cortex through the guide cannula.
A stabilization period of 2 hours was maintained and five basal samples were collected at 20 minutes intervals. The test compound, Example 50 or vehicle was administered and dialysate samples were collected at 20 minutes interval for an additional period of 4 hours. Dialysates were stored below −70° C. until quantitation of acetylcholine.
Acetylcholine in dialysate was quantified in the calibration range of 0.103 nmol-103.491 nmol using LC-MS/MS method.
All microdialysis data were plotted as percent change from mean dialysate basal concentrations with 100% defined as the average of five pre-dose values. The AUC was calculated by trapezoidal rule using WinNonlin (5.0.1 version, Pharsight Corp. CA). The statistical significance between the mean AUC values of treatment groups with vehicle was calculated using one-way ANOVA followed by Dunnett's test. For each treatment group, the percent increase in acetylcholine levels was compared to the vehicle group using two-way analysis of variance (time and treatment), followed by Bonferroni's multiple comparison test. Statistical significance was considered at a p value less than 0.05.
In-correct probe placement was considered as criteria to reject the data from animal.

hERG = target: T1, hERG (Homo sapiens, UniProt Q12809); experiment: Automated hERG patch clamp assay; type: cell-based; details: hERG-HEK293 cells, whole cell patch clamp
T1 construct: expressed in transfected cells; host or cells: HEK293 (hERG-HEK293)
Experimental: To study the cardiac safety of test compounds using automated hERG patch clamp assay, hERG-HEK293 cells were grown to 70% confluency and were harvested using accumax. The cells were then suspended in complete media and were incubated at 37° C. and 5% CO2 for 30 minutes before using these cells for the whole cell patch clamp assay. Whole cell patch clamp recordings were conducted on Nanion's Patchliner using I-V protocol of voltage step from holding potential of −80 mV to +40 mV for 500 ms and then to test potential for 500 ms and back to holding potential of −80 mV. Pulses were elicited every 10 seconds. Each test compound concentration was incubated for 5 minutes. Data analysis was done by plotting the raw data using Igor Pro software and IC50 values were calculated. Cells with resistance >1 Gohms and tail currents of >200 pA were taken into consideration for data analysis. Quinidine was used as positive control.

T1 sequence (Q12809 whole entry): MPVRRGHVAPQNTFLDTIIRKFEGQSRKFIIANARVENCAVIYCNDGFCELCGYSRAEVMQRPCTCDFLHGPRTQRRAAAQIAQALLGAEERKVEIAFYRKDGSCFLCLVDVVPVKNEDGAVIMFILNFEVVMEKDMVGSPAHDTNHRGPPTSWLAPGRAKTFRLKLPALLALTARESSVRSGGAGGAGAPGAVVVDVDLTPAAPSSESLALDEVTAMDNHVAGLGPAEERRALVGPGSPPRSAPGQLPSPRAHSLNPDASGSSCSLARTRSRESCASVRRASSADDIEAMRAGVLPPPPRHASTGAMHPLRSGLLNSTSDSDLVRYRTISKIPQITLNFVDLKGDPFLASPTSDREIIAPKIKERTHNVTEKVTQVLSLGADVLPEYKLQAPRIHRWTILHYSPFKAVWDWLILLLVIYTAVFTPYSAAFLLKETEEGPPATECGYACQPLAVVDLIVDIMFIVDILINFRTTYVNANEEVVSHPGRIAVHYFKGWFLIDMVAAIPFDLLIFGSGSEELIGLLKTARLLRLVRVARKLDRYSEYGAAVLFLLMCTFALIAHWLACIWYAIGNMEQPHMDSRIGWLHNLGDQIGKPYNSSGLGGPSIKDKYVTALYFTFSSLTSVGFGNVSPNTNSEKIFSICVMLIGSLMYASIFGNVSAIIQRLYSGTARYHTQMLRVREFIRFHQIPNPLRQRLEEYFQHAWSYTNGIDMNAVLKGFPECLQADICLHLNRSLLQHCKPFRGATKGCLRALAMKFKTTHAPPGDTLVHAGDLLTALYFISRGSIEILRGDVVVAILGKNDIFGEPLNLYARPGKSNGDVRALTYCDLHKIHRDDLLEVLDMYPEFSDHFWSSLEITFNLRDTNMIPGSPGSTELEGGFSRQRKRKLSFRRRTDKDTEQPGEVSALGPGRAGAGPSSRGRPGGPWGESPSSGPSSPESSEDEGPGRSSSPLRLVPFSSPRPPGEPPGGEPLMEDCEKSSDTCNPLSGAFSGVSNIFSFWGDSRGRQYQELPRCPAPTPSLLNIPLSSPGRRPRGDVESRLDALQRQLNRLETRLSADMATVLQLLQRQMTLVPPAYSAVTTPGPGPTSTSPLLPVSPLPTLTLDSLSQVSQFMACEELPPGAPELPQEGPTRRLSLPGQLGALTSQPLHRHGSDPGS

CC(C)(O)CN1CCC(F)(CNC(=O)c2cc(Cl)c(N)c3ccoc23)CC1 [Example 50, 4-Amino-5-chloro-N-{[4-fluoro-1-(2-hydroxy-2-methylpropyl)-4-piperidinyl]methyl}benzofuran-7-carboxamide L(+)-tartarate]
Exploration time mean ± S.E.M, Familiar object [1]: 9.89 ± 1.49 s
Exploration time mean ± S.E.M, Novel object [1]: 18.58 ± 2.44 s
Inference [1]: Active
Acetylcholine levels, frontal cortex, % of pre-dose levels (acetylcholine; 10.0 mg/kg): 204%
Area under the curve (AUC), frontal cortex acetylcholine (acetylcholine; 10.0 mg/kg): significant increase
acetylcholine levels of frontal cortex (acetylcholine; across doses): dose-dependent increase
IC50 (hERG): > 10 µM
